Our source for the MEC and IC50 values is patent US9688699B2, “3-(pyrimidine-2-yl)imidazo[1,2-a]pyridines” (Bayer Pharma Aktiengesellschaft, priority 2014, dated 2017).

For test [1], the target named is T1, recombinant guanylate cyclase reporter cell line (Rattus norvegicus, UniProt P19686+P20595).
T1 construct: expressed in transfected cells
T1 sequence (P19686 1-690): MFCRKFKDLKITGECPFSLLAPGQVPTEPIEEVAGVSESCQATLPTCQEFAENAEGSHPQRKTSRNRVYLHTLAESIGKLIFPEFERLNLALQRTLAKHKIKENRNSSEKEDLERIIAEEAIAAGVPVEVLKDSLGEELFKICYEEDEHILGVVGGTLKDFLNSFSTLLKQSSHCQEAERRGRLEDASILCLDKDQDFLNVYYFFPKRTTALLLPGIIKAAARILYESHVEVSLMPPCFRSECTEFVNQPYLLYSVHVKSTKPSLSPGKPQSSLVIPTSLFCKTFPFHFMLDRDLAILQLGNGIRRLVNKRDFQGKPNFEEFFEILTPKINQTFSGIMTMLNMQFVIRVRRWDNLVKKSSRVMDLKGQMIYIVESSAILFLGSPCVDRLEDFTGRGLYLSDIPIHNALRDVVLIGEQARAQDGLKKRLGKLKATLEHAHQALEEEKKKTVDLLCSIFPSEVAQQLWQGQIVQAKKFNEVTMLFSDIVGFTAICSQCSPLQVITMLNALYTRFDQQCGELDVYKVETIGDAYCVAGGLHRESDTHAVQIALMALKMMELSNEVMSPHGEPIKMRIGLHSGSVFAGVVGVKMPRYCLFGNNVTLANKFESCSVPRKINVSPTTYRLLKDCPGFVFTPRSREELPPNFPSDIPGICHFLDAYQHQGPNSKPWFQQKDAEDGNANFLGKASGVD
T1 sequence (P20595 1-619): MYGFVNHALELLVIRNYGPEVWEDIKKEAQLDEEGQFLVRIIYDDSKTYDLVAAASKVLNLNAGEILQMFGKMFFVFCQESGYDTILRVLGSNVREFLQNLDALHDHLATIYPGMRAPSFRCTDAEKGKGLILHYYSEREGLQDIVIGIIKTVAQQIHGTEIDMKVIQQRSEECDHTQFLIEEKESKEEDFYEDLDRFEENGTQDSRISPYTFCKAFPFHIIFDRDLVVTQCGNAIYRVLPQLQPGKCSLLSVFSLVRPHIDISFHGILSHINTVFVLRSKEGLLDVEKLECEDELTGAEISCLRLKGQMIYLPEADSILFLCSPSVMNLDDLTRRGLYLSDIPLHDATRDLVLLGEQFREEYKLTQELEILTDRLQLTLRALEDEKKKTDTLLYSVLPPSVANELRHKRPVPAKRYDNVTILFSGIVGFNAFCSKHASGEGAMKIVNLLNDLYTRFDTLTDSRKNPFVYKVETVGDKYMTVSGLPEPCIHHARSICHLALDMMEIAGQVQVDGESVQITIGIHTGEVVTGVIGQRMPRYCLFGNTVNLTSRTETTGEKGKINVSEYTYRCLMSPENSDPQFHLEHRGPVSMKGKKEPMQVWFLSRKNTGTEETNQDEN
The experiment in a line: Effect on a recombinant guanylate cyclase reporter cell line (B-2). The test is classed as cell-based. Particulars: MEC = minimum effective concentration, in some cases mean values for individual determinations. Here is the method:
B-2. Effect on a Recombinant Guanylate Cyclase Reporter Cell Line
The cellular activity of the compounds according to the invention is determined using a recombinant guanylate cyclase reporter cell line, as described in F. Wunder et al., Anal. Biochem. 339, 104-112 (2005).
Representative MEC values (MEC=minimum effective concentration) for the compounds of the invention are shown in Table 1 below (in some cases as mean values for individual determinations): […]

Test [2] concerns the target T2, human phosphodiesterase 5 (PDE 5) (Homo sapiens, UniProt O76074).
T2 construct: PDE 5 preparations are obtained from human platelets by disruption; from tissue; host or cells: human platelets (Mono Q ion exchange fractions with PDE 5 activity)
Kind of test: Inhibition of human phosphodiesterase 5 (PDE 5) (B-3). The following applies: PDE 5 preparation from human platelets; [8-3H] cGMP substrate, SPA; in some cases means of individual determinations. It is filed as biochemical. On the procedure: B-3. Inhibition of Human Phosphodiesterase 5 (PDE 5)
PDE 5 preparations are obtained from human platelets by disruption (Microfluidizer®, 800 bar, 3 passes), followed by centrifugation (75 000 g, 60 min, 4° C.) and ion exchange chromatography of the supernatant on a Mono Q 10/10 column (linear sodium chloride gradient, elution with a 0.2-0.3M solution of sodium chloride in buffer (20 mM Hepes pH 7.2, 2 mM magnesium chloride). Fractions having PDE 5 activity are combined (PDE 5 preparation) and stored at −80° C.
To determine their in vitro action on human PDE 5, the test substances are dissolved in 100% DMSO and serially diluted. Typically, dilution series (1:3) from 200 μM to 0.091 μM are prepared (resulting final concentrations in the test: 4 μM to 0.0018 μM). In each case 2 μl of the diluted substance solutions are placed into the wells of microtitre plates (Isoplate-96/200 W; Perkin Elmer). Subsequently, 50 μl of a dilution of the above-described PDE 5 preparation are added. The dilution of the PDE 5 preparation is chosen such that during the later incubation less than 70% of the substrate are converted (typical dilution: 1:100; dilution buffer: 50 mM tris/hydrochloric acid pH 7.5, 8.3 mM magnesium chloride, 1.7 mM EDTA, 0.2% BSA). The substrate, [8-^3H] cyclic guanosine-3′,5′-monophosphate (1 μCi/μl; Perkin Elmer), is diluted 1:2000 with assay buffer (50 mM tris/hydrochloric acid pH 7.5, 8.3 mM magnesium chloride, 1.7 mM EDTA) to a concentration of 0.0005 μCi/μl. By addition of 50 μl (0.025 μCi) of the diluted substrate, the enzyme reaction is finally started. The test mixtures are incubated at room temperature for 60 min and the reaction is stopped by adding 25 μl of a suspension of 18 mg/ml yttrium scintillation proximity beads in water (phosphodiesterase beads for SPA assays, RPNQ 0150, Perkin Elmer). The microtitre plates are sealed with a film and left to stand at room temperature for 60 min. Subsequently, the plates are analysed for 30 s per well in a Microbeta scintillation counter (Perkin Elmer). IC50 values are determined using the graphic plot of the substance concentration against percentage PDE 5 inhibition.

Counter-ions that a name gives are not always drawn.

A word on the IC50: it is the point on the concentration scale where inhibition reaches its midpoint. A low value points to greater potency. Consider `Cc1nc2c(OCc3c(F)cccc3F)cccn2c1-c1nc2c(c(N3C[C@H]4C[C@@]4(N)C3)n1)C(C)(C)C(=O)N2` (relative stereo) [Example 32, rac-rel-4-[(1R,5S)-1-amino-3-azabicyclo[3.1.0]hex-3-yl]-2-{8-[(2,6-difluorobenzyl)oxy]-2-methylimidazo[1,2-a]pyridin-3-yl}-5,5-dimethyl-5,7-dihydro-6H-pyrrolo[2,3-d]pyrimidin-6-one formate], for which the MEC in test [1] came to 1 µM. Moreover, in test [2], the IC50 amounted to 11 nM.
On the same counts, the results for `Cc1nc2c(OCc3c(F)cccc3F)cccn2c1-c1nc(NCC(N)(CF)CF)c2c(n1)NC(=O)C2(C)C` [Example 33, 4-{[2-amino-3-fluoro-2-(fluoromethyl)propyl]amino}-2-{8-[(2,6-difluorobenzyl)oxy]-2-methylimidazo[1,2-a]pyridin-3-yl}-5,5-dimethyl-5,7-dihydro-6H-pyrrolo[2,3-d]pyrimidin-6-one] are 1 µM and 9.7 nM.
The corresponding values for `Cc1nc2c(OCc3c(F)cccc3F)cccn2c1-c1nc2c(c(N3CCC[C@@H]3CO)n1)C(C)(C)C(=O)N2` [Example 37, 2-{8-[(2,6-difluorobenzyl)oxy]-2-methylimidazo[1,2-a]pyridin-3-yl}-4-[(2R)-2-(hydroxymethyl)pyrrolidin-1-yl]-5,5-dimethyl-5,7-dihydro-6H-pyrrolo[2,3-d]pyrimidin-6-one] are 1 µM and 21 nM.
Regarding `Cc1nc2c(OCc3c(F)ccc(F)c3F)cccn2c1-c1nc2c(c(C(=O)N3CC(N)C(F)(F)C3)n1)C(C)(C)C(=O)N2` (racemic) [Example 61, rac-4-[(4-amino-3,3-difluoropyrrolidin-1-yl)carbonyl]-5,5-dimethyl-2-{2-methyl-8-[(2,3,6-trifluorobenzyl)oxy]imidazo[1,2-a]pyridin-3-yl}-5,7-dihydro-6H-pyrrolo[2,3-d]pyrimidin-6-one trifluoroacetate], the MEC in test [1] worked out at 3 µM. The IC50 in test [2] worked out at 730 nM.
`Cc1nc2c(OCc3c(F)ccc(F)c3F)cccn2c1-c1nc2c(c(C(=O)O)n1)C(C)(C)C(=O)N2` [Example 54, 5,5-Dimethyl-2-{2-methyl-8-[(2,3,6-trifluorobenzyl)oxy]imidazo[1,2-a]pyridin-3-yl}-6-oxo-6,7-dihydro-5H-pyrrolo[2,3-d]pyrimidine-4-carboxylic acid]: the MEC in test [1] stood at 10 µM. This molecule came in with an IC50 in test [2] of 420 nM.
On the same counts, the results for `Cc1nc2c(OCc3c(F)cccc3F)cccn2c1-c1nc2c(c(-n3cc(O)cn3)n1)C(C)(C)C(=O)N2` [Example 43, 2-{8-[(2,6-Difluorobenzyl)oxy]-2-methylimidazo[1,2-a]pyridin-3-yl}-4-(4-hydroxy-1H-pyrazol-1-yl)-5,5-dimethyl-5,7-dihydro-6H-pyrrolo[2,3-d]pyrimidin-6-one] are 3 µM and 5.5 nM.
On to `Cc1nc2c(OCc3c(F)cccc3F)cccn2c1-c1nc(NCC(C)(C)O)c2c(n1)NC(=O)C2(C)C` [Example 16, 2-{8-[(2,6-Difluorobenzyl)oxy]-2-methylimidazo[1,2-a]pyridin-3-yl}-4-[(2-hydroxy-2-methylpropyl)amino]-5,5-dimethyl-5,7-dihydro-6H-pyrrolo[2,3-d]pyrimidin-6-one], for which, in test [1], the MEC was 0.65 µM. The same molecule yielded an IC50 in test [2] of 4.8 nM.
On to `CCCC(C)(N)CNc1nc(-c2c(C)nc3c(OCc4c(F)cccc4F)cccn23)nc2c1C(C)(C)C(=O)N2` (racemic) [Example 13, rac-4-[(2-Amino-2-methylpentyl)amino]-2-{8-[(2,6-difluorobenzyl)oxy]-2-methylimidazo[1,2-a]pyridin-3-yl}-5,5-dimethyl-5,7-dihydro-6H-pyrrolo[2,3-d]pyrimidin-6-one (racemate)], for which the MEC in test [1] came to 1 µM. Moreover, the IC50 in test [2] turned out to be 12 nM.
Regarding `Cc1nc2c(OCc3c(F)cccc3F)cc(Cl)cn2c1-c1nc(N)c2c(n1)NC(=O)C2(C)C` [Example 67, 4-Amino-2-{6-chloro-8-[(2,6-difluorobenzyl)oxy]-2-methylimidazo[1,2-a]pyridin-3-yl}-5,5-dimethyl-5,7-dihydro-6H-pyrrolo[2,3-d]pyrimidin-6-one], in test [1], the MEC was found to be 0.03 µM. In test [2], this molecule yielded an IC50 of 47 nM.
On the same counts, the results for `Cc1nc2c(OCc3c(F)cccc3F)cccn2c1-c1nc(NCC2(N)CC2)c2c(n1)NC(=O)C2(C)C` [Example 42, 4-{[(1-Aminocyclopropyl)methyl]amino}-2-{8-[(2,6-difluorobenzyl)oxy]-2-methylimidazo[1,2-a]pyridin-3-yl}-5,5-dimethyl-5,7-dihydro-6H-pyrrolo[2,3-d]pyrimidin-6-one] are 0.1 µM and 6 nM.
On the same counts, the results for `Cc1nc2c(OCc3c(F)cccc3F)cccn2c1-c1nc(NCC(C)(N)C(F)F)c2c(n1)NC(=O)C2(C)C` (racemic) [Example 39, rac-4-[(2-amino-3,3-difluoro-2-methylpropyl)amino]-2-{8-[(2,6-difluorobenzyl)oxy]-2-methylimidazo[1,2-a]pyridin-3-yl}-5,5-dimethyl-5,7-dihydro-6H-pyrrolo[2,3-d]pyrimidin-6-one] are 0.3 µM and 9.6 nM.
On the same counts, the results for `Cc1nc2c(OCc3c(F)ccc(F)c3F)cccn2c1-c1nc2c(c(C(=O)NCC(C)(C)N)n1)C(C)(C)C(=O)N2` [Example 58, N-(2-amino-2-methylpropyl)-5,5-dimethyl-2-{2-methyl-8-[(2,3,6-trifluorobenzyl)oxy]imidazo[1,2-a]pyridin-3-yl}-6-oxo-6,7-dihydro-5H-pyrrolo[2,3-d]pyrimidin-4-carboxamide trifluoroacetate] are 3 µM and 5.2 nM.
Turning to `Cc1nc2c(OCc3c(F)cccc3F)cccn2c1-c1nc(N)c2c(n1)NC(=O)C2(C)C` [Example 1, 4-Amino-2-{8-[(2,6-difluorobenzyl)oxy]-2-methylimidazo[1,2-a]pyridin-3-yl}-5,5-dimethyl-5,7-dihydro-6H-pyrrolo[2,3-d]pyrimidin-6-one], in test [1], the MEC was 0.3 µM. Further, in test [2], it took 34 nM to reach half-maximal inhibition (IC50).
